1 compound from ChEMBL document CHEMBL5236603, “Discovery of mobocertinib, a potent, oral inhibitor of EGFR exon 20 insertion mutations in non-small cell lung cancer” (Bioorg Med Chem Lett, 2023) can be followed below.

Data set [1] addresses Receptor tyrosine-protein kinase erbB-4 (Homo sapiens) (UniProt Q15303). As to the kind of experiment: Inhibition of human HER4 at 1 uM by hotspot assay relative to control.
A short description of data set [2]: AUClast in CD-1 rat at 10 mg/kg, po by LC/MS/MS analysis. The format is ADME, organism-based. Also on record: dose 10 mg/kg, route po. Conditions: in vivo.
Data set [3] is described as follows: Inhibition of mouse EGFR common activating deletion mutant stably expressed in mouse BaF3 cells assessed as cell viability incubated for 3 days by Cell Titer-Glo assay. The format is cell-based. Conditions: BaF3, 72 h.
Data set [4] in a line: Inhibition of mouse EGFR A767_V769dup V769_D770insASV (ASV) mutant stably expressed in mouse BaF3 cells assessed as cell viability incubated for 3 days by Cell Titer-Glo assay. The format is cell-based. Conditions: BaF3, 72 h. A general note: In ATP-based viability assays light output follows the ATP content of the culture.
Data set [5] concerns the target Tyrosine-protein kinase Blk (Homo sapiens) (UniProt P51451). As to the kind of experiment: Inhibition of human BLK at 1 uM by hotspot assay relative to control.
A short description of data set [6]: Inhibition of mouse EGFR del-T790M mutant stably expressed in mouse BaF3 cells assessed as cell viability incubated for 3 days by Cell Titer-Glo assay. The format is cell-based. Conditions: BaF3, 72 h.
A short description of data set [7]: Inhibition of mouse EGFR V769_D770insASV mutant stably expressed in mouse BaF3 cells assessed as cell viability incubated for 3 days by Cell Titer-Glo assay. The conditions noted are these: BaF3, 72 h. The format is cell-based.
Data set [8] can be described thus: Cmax in CD-1 rat at 10 mg/kg, po by LC/MS/MS analysis. The format is ADME, organism-based. Also noted: dose 10 mg/kg, route po. Conditions: in vivo.
In data set [9] the target is Receptor tyrosine-protein kinase erbB-2 (Homo sapiens) (UniProt P04626). As to the kind of experiment: Inhibition of human HER2 at 1 uM by hotspot assay relative to control.
Data set [10] has as its system BaF3. As to the kind of experiment: In vivo antitumor activity against mouse BaF3 cells expressing EGFR exon 20 insertion (ex20ins) ASV implanted in SCID mouse assessed as tumor growth inhibition at 100 mg/kg, po administered for 7 consecutive days. The conditions noted are these: BaF3, 168 h, time 7 day, read-out: TGI. The format is functional.
In data set [11] the target is Epidermal growth factor receptor (Homo sapiens, UniProt P00533). As to the kind of experiment: Inhibition of […]-induced wild type EGFR phosphorylation in human A-431 cells pretreated for 2 hrs followed by EGF stimulation by immune assay. The format is cell-based.
Data set [12] has as its system BaF3. Description: Anticancer activity against parental mouse BaF3 cells assessed as cell viability incubated for 3 days by Cell Titer-Glo assay. The format is functional, cell-based. The conditions noted are these: BaF3, 72 h.
In data set [13] the target is T1, Tyrosine-protein kinase TXK (Homo sapiens) (UniProt P42681).
T1 sequence (whole entry): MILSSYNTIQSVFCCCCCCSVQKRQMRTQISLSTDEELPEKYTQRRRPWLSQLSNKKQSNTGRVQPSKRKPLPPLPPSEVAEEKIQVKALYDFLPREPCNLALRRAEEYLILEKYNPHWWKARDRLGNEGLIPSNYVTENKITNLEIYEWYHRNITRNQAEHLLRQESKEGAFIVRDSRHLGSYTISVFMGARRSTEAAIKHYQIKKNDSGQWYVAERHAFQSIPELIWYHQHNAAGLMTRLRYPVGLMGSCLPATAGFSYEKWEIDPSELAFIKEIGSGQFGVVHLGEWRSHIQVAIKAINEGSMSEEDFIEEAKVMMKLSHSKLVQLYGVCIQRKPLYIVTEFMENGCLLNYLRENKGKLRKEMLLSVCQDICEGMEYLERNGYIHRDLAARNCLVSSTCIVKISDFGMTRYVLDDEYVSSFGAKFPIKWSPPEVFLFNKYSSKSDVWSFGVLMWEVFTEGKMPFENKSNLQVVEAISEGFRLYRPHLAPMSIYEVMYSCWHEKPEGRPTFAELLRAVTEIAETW
Description: Inhibition of human TXK at 1 uM by hotspot assay relative to control.

Data set [14] can be described thus: Toxicity in SCID mouse assessed as body weight change at 100 mg/kg, po administered for 7 consecutive days. The format is organism-based. Conditions: in vivo.
The target of data set [15] is Tyrosine-protein kinase BTK (Homo sapiens) (UniProt Q06187). Description: Inhibition of human BTK at 1 uM by hotspot assay relative to control.
Data set [16] relates to BaF3. As to the kind of experiment: In vivo antitumor activity against mouse BaF3 cells expressing EGFR exon 20 insertion (ex20ins) ASV implanted in SCID mouse assessed as tumor regression at 100 mg/kg, po administered for 7 consecutive days. Conditions: time 7 day. The format is functional.
The nature of data set [17]: Inhibition of mouse EGFR D770_N771insNPG mutant stably expressed in mouse BaF3 cells assessed as cell viability incubated for 3 days by Cell Titer-Glo assay. The format is cell-based. The conditions noted are these: BaF3, 72 h.
Data set [18] in a line: AUClast in CD-1 mouse at 10 mg/kg, po by LC/MS/MS analysis. The conditions noted are these: in vivo. Also on record: dose 10 mg/kg, route po. The format is ADME, organism-based.
Data set [19] deals with BaF3. As to the kind of experiment: In vivo antitumor activity against mouse BaF3 cells expressing EGFR exon 20 insertion (ex20ins) ASV implanted in SCID mouse assessed as tumor growth inhibition at 30 mg/kg, po administered for 7 consecutive days. The format is functional. Conditions: BaF3, 168 h, time 7 day, read-out: TGI.
Data set [20] deals with T2, Tyrosine-protein kinase Tec (Homo sapiens) (UniProt P42680).
T2 sequence (whole entry): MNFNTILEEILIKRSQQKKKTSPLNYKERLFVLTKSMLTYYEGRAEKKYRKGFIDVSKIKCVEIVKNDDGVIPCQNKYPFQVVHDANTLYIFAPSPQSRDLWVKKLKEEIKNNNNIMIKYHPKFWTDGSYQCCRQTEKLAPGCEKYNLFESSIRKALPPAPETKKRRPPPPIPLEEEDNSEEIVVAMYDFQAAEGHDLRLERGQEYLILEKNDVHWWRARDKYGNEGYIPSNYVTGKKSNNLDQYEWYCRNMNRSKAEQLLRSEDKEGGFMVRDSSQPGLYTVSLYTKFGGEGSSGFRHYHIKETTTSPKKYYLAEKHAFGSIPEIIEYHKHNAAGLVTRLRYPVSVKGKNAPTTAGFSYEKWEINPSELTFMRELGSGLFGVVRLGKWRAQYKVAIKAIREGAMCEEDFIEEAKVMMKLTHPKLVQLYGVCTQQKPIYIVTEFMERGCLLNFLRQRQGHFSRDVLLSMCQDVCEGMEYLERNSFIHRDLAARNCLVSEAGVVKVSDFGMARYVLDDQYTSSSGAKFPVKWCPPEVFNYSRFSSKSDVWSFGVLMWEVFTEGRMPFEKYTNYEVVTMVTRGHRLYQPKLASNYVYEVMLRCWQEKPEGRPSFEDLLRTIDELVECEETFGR
As to the kind of experiment: Inhibition of human TEC at 1 uM by hotspot assay relative to control.

Data set [21] in a line: Inhibition of mouse EGFR N771_H773dup H773_V774insNPH […] (NPH) mutant stably expressed in mouse BaF3 cells assessed as cell viability incubated for 3 days by Cell Titer-Glo assay. The format is cell-based. Conditions: BaF3, 72 h.

Structures are written as SMILES.

Receptor tyrosine-protein kinase erbB-2 (Homo sapiens), sequence (P04626 whole entry): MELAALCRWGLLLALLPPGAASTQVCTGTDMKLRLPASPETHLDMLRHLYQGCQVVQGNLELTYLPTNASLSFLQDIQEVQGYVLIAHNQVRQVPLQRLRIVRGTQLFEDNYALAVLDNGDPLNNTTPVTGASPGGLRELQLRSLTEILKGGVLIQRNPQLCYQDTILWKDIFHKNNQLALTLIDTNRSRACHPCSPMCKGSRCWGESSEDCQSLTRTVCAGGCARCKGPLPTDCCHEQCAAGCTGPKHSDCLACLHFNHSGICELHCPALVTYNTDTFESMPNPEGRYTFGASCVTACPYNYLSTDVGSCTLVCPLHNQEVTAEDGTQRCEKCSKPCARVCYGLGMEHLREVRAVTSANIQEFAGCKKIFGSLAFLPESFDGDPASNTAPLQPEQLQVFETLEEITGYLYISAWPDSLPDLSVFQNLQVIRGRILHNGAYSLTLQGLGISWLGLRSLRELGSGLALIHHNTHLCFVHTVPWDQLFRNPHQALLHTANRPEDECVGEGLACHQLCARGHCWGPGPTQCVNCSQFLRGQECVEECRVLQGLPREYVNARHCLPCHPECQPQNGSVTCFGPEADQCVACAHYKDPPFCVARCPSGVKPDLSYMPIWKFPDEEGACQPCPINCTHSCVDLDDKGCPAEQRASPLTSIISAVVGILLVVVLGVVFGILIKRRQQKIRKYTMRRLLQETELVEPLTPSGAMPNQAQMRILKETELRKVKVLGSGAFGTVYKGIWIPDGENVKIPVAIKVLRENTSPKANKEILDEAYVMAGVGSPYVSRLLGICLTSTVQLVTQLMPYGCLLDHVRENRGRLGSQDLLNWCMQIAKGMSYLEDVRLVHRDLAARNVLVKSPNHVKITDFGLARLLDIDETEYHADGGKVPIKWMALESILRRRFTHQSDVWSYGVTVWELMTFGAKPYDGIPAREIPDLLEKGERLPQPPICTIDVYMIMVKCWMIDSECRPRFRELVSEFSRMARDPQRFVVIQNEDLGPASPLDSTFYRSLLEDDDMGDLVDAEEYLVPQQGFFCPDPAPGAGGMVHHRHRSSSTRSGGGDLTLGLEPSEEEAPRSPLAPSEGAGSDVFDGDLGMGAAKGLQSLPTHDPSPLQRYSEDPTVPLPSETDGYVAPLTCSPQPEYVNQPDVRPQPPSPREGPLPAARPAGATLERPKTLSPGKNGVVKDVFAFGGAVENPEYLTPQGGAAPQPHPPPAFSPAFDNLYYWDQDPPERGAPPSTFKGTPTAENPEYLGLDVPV
Tyrosine-protein kinase BTK (Homo sapiens), sequence (Q06187 whole entry): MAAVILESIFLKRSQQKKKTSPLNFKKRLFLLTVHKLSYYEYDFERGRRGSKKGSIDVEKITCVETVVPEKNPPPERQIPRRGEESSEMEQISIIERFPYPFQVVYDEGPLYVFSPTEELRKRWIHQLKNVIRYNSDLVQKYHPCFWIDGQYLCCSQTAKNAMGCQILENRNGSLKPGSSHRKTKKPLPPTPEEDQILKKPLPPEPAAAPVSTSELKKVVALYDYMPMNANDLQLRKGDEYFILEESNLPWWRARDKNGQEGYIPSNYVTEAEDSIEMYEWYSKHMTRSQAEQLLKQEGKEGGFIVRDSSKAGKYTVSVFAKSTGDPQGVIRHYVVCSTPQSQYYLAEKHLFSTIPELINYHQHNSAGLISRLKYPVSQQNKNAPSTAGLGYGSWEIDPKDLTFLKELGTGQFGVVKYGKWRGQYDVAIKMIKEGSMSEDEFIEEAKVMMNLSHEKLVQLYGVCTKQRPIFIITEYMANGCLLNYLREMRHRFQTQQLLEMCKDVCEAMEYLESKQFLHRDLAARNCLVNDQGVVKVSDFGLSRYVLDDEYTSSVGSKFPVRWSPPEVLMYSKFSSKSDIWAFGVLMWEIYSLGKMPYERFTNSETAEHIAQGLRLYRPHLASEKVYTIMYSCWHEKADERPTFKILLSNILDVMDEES
Epidermal growth factor receptor, sequence (P00533 whole entry): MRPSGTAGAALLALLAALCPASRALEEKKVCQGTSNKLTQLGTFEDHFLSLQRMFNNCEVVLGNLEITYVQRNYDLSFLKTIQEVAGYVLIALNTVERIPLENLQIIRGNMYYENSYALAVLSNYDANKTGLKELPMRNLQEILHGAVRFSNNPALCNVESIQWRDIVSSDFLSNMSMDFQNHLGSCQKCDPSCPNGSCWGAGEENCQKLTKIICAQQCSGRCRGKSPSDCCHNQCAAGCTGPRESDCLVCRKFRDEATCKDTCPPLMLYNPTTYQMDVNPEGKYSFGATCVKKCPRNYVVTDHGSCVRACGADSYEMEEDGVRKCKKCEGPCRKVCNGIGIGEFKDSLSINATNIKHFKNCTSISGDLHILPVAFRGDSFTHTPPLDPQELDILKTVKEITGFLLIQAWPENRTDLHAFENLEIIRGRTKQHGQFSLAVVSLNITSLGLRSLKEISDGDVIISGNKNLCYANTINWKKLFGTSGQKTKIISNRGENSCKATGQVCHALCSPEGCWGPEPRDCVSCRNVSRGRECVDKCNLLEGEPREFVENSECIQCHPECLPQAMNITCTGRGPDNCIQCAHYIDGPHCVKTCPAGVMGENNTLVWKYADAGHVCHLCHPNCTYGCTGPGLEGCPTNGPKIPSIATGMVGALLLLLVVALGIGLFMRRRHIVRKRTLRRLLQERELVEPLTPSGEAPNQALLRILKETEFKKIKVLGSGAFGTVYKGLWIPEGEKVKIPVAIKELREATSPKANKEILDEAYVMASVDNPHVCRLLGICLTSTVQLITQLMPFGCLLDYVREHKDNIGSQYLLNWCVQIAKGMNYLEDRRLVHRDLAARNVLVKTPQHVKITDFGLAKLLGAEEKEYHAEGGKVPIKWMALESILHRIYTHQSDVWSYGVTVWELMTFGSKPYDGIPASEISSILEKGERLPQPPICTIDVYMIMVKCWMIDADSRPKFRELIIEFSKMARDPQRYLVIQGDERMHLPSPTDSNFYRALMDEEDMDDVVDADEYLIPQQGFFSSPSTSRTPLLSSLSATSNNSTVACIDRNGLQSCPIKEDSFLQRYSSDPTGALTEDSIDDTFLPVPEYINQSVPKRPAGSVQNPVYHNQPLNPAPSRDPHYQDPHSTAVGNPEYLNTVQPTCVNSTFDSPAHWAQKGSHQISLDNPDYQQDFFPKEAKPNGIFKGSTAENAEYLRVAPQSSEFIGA
Tyrosine-protein kinase Blk (Homo sapiens), sequence (P51451 2-505 limits assumed): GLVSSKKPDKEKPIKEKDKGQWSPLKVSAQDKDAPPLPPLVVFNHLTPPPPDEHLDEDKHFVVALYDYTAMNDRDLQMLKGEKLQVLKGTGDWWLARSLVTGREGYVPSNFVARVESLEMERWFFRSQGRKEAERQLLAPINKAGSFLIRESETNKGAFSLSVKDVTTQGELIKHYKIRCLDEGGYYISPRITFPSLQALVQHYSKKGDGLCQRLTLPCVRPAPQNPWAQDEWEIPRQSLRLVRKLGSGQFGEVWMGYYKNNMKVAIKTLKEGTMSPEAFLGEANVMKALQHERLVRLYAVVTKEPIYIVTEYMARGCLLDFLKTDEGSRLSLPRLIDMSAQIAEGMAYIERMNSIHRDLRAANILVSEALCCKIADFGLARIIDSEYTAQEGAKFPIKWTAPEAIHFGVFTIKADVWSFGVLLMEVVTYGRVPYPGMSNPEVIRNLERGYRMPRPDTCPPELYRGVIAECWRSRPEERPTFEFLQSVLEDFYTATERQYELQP
Receptor tyrosine-protein kinase erbB-4 (Homo sapiens), sequence (Q15303 whole entry): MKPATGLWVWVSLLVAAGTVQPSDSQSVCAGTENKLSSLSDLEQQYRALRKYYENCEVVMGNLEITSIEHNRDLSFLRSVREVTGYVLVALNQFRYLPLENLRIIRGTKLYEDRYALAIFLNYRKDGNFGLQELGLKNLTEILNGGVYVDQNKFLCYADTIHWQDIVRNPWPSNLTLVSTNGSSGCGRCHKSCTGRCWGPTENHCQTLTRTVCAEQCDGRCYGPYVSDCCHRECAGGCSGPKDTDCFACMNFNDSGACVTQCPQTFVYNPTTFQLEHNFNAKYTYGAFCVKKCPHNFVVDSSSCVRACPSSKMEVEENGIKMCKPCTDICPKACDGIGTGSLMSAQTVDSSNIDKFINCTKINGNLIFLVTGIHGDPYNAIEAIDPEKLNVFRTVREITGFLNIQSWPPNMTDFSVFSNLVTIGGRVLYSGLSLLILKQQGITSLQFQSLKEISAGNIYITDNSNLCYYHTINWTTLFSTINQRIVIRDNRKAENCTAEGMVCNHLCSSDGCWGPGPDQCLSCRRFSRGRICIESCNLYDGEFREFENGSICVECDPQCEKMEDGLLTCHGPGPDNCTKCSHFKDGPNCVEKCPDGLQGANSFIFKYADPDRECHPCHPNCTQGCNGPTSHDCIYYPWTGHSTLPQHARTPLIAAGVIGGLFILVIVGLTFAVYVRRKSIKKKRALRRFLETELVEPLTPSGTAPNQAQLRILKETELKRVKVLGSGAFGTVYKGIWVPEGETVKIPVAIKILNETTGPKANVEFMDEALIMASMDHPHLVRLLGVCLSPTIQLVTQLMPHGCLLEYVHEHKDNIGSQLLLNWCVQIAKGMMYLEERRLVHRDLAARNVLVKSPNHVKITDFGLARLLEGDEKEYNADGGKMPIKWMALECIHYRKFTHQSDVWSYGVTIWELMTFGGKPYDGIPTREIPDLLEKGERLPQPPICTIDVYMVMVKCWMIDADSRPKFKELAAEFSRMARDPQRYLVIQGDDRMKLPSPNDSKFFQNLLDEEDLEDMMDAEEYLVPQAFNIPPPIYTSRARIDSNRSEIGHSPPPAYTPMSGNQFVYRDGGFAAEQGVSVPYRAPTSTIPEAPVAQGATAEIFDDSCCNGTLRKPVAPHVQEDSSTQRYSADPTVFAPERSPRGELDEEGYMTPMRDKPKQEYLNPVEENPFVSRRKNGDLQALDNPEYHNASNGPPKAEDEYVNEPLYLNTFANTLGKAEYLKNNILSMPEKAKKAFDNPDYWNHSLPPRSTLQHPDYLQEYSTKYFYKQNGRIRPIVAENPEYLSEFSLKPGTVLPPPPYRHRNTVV

What is called inhibition is the percentage by which the read-out fell short of the control. Low readings indicate little suppression, high ones strong suppression. What is called AUC(0-t) is the area under the concentration-time curve up to a stated or last time point. Lower therefore signals low exposure. One may read the IC50 as the concentration that gives 50% inhibition. For orientation: Cmax means the peak of the concentration-time curve. Consider `C=CC(=O)Nc1cc(Nc2ncc(C(=O)OC(C)C)c(-c3cn(C)c4ccccc34)n2)c(OC)cc1N(C)CCN(C)C` [MOBOCERTINIB], for which the inhibition was > 97% in data set [1]; > 81% in data set [5]; > 97% in data set [9]; > 81% in data set [13]; > 81% in [15]; > 81% in data set [20]. Moreover, the results for the AUC(0-t) in [2] and in data set [18] were 1780 ng·h/mL and 341 ng·h/mL, respectively. In addition, the IC50 stood at 2.7 nM in data set [3]; 11 nM in data set [4]; 6.3 nM in data set [6]; 11 nM in data set [7]; 34.5 nM in data set [11]; 3950 nM in the data set with BaF3 [12]. In addition, the IC50 was 4 nM in data set [17] and 18.1 nM in data set [21]. In [8], this compound yielded a Cmax of 143 ng/mL. The inhibition in vivo at 100 mg/kg in the data set on BaF3 [10] was 89%. For the same compound, the Activity result is reported as “Non-Toxic” in [14] and -98% with BaF3 [16]. In the data set on BaF3 [19], the inhibition in vivo at 30 mg/kg worked out at 77%.
